From US20100098633A1, “SELECTIVE SEPRASE INHIBITORS” (Molecular Insight Pharmaceuticals, Inc., priority 2008, published 2010) come the findings set out here.

The assay has as its target T1, recombinant human seprase (rhFAP) (Homo sapiens, UniProt Q12884).
T1 sequence (Q12884 26-760 limits assumed): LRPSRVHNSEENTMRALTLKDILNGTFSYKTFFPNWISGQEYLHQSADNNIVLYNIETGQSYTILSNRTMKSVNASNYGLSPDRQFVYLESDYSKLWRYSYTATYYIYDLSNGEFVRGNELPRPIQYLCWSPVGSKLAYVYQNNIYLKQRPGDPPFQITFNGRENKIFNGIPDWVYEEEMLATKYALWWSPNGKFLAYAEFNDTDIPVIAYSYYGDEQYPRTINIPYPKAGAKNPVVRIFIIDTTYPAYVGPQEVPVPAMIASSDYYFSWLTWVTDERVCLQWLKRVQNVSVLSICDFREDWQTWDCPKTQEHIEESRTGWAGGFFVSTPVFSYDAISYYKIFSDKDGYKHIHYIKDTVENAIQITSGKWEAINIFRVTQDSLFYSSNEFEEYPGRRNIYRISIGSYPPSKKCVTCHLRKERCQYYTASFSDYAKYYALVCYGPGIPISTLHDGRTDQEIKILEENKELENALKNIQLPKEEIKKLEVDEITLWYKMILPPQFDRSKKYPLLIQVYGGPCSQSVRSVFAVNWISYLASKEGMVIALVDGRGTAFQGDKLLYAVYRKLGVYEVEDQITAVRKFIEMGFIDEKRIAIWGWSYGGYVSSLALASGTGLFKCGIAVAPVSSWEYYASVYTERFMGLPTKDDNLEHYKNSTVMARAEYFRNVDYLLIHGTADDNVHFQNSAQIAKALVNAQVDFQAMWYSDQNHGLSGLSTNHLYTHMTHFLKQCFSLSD
Description: Inhibition of enzymatic activity of recombinant human seprase on Z-Gly-Pro-AMC (fluorescence). Particulars: for IC50: in vitro data against seprase, read-out: FAP (IC50 nM); for Percent of Control / remaining activity at 0.005 µM / remaining activity at 0.05 µM / remaining activity at 0.5 µM / remaining activity at 5 µM / remaining activity at 500 µM: initial velocity normalized to control without test compound, 50 μM Z-Gly-Pro-AMC; for remaining activity at 0.005 µM / remaining activity at 0.05 µM / remaining activity at 0.5 µM / remaining activity at 5 µM / remaining activity at 500 µM: read-out: Percent of Control. Type of assay: biochemical. On the procedure: In vitro assaying of compounds for inhibition of dipeptidyl peptidase activity of seprase and DPP-IV can be achieved following the described in Edosada C. Y. et al. J. Biolog. Chem. 2006, 281, 7437-7444.
Selected test compounds were examined for their ability to inhibit the enzymatic activity of recombinant human seprase (rhFAP) on the substrate, benzyloxycarbonyl-Gly-Pro-7-amido-4-methylcoumarin (Z-Gly-Pro-AMC). In brief, 10 μg rhFAP was added to 50 μM Z-Gly-Pro-AMC in the presence of increasing concentrations of test compound, and enzymatic activity was determined by monitoring fluorescence (Ex. 355 nm/Em. 460 nm). Compound 1051 is the known inhibitor, Cbz-Gly-boroproline. Initial velocity of the reaction was calculated and normalized to control reactions conducted in the absence of test compound.
The inhibition was measured by the half maximal inhibitory concentration (IC50) of a compound of interest. The IC50 indicates how much of a particular compound is needed to inhibit seprase by half.

The IC50 is the midpoint of a concentration-inhibition curve. Regarding “Re(CO)3-2,2′-(2,2′-(6-(2-(2-boronopyrrolidin-1-yl)-2-oxoethylamino)-6-oxohexyl azanediyl)bis(methylene)bis(1H-imidazole-2,1-diyl))diacetic acid [Compound 1020]”, the concentration for half-maximal inhibition (IC50) stood at 4 nM.
On the same count and under the same terms, under “Re(CO)3[1-(2-(6-(bis(pyridin-2-ylmethyl)amino)hexanamido) acetyl)pyrrolidin-2-ylboronic acid] [Compound 1014]” stands 21 nM.
“Re(CO)3[1-(6-(bis(pyridin-2-ylmethyl)amino)hexanoyl)pyrrolidin-2-ylboronic acid] [Compound 1010]”: the IC50 was 2540 nM. In addition, the “Percent of Control” value (inhibitor 0.005 μM) is 90%. The “Percent of Control” value (inhibitor 0.05 μM) was determined as 95%. Further, under “inhibitor 0.5 μM”, the “Percent of Control” value amounted to 82%. Moreover, the “Percent of Control” value (inhibitor 5 μM) amounted to 26%. Further, the “Percent of Control” value (inhibitor 50 μM) came out at 0%. For the same compound, the “Percent of Control” value (inhibitor 500 μM) is 0%.
As for `N#Cc1ccc(I)cc1C(=O)NCC(=O)N1CCC[C@H]1C#N` [Compound 1044, (S)-2-cyano-N-(2-(2-cyanopyrrolidin-1-yl)-2-oxoethyl)-5-iodobenzamide], the IC50 came to 23700 nM.
With `N#C[C@@H]1CCCN1C(=O)CNC(=O)c1ccccc1I` [Compound 1043, (S)—N-(2-(2-cyanopyrrolidin-1-yl)-2-oxoethyl)-2-iodobenzamide], the IC50 stood at 115 nM.
For the compound `O=C(NCC(=O)N1CCCC1B(O)O)c1ccccc1I` (centres unmarked) [Compound 1023, 1-(2-(2-iodobenzamido)acetyl)pyrrolidin-2-ylboronic acid], the IC50 was found to be 7 nM. Moreover, the remaining activity at 0.005 µM (inhibitor 0.005 μM) stood at 42%. The remaining activity at 0.05 µM (inhibitor 0.05 μM) was determined as 0%. The remaining activity at 0.5 µM (inhibitor 0.5 μM) worked out at 0%. In addition, under “inhibitor 5 μM”, the remaining activity at 5 µM came to 0%. The remaining activity at 500 µM (inhibitor 500 μM) was 0%.
Turning to `N#C[C@@H]1CCCN1C(=O)CNC(=O)c1cc(I)ccc1Cl` [Compound 1042, (S)-2-chloro-N-(2-(2-cyanopyrrolidin-1-yl)-2-oxoethyl)-5-iodobenzamide], the IC50 came out at 785 nM.
In the case of `N#C[C@@H]1CCCN1C(=O)CNC(=O)c1cccc(I)c1` [Compound 1040, (S)-N-(2-(2-cyanopyrrolidin-1-yl)-2-oxoethyl)-3-iodobenzamide], the “IC50 values against seprase (in words)” value is given as “low nanomolar range” and the IC50 worked out at 35 nM.
Turning to `O=C(NCC(=O)N1CCCC1B(O)O)c1ccc(I)cc1Cl` (centres unmarked) [Compound 1026, 1-(2-(2-chloro-4-iodobenzamido)acetyl)pyrrolidin-2-ylboronic acid], the IC50 came to 3 nM.
The same measure, in the same setting: under `N#C[C@@H]1CCCN1C(=O)CN1CCN(Cc2cccc(I)c2)CC1` [Compound 1050, (S)-1-(2-(4-(3-iodobenzyl)piperazin-1-yl)acetyl)pyrrolidine-2-carbonitrile] stands 1150 nM.
Take `O=C(NCC(=O)N1CCCC1B(O)O)c1cccc(I)c1` (centres unmarked) [Compound 1025, 1-(2-(3-iodobenzamido)acetyl)pyrrolidin-2-ylboronic acid]: the IC50 turned out to be 2 nM. Besides, the remaining activity at 0.005 µM (inhibitor 0.005 μM) was determined as 0%. Also, under “inhibitor 0.05 μM”, the remaining activity at 0.05 µM is 0%. The remaining activity at 0.5 µM (inhibitor 0.5 μM) turned out to be 0%. The remaining activity at 5 µM (inhibitor 5 μM) was 0%. For the same compound, the remaining activity at 500 µM (inhibitor 500 μM) amounted to 0%.
On to `N#C[C@@H]1CCCN1C(=O)CNC(=O)c1ccc(I)cc1` [Compound 1039, (S)-N-(2-(2-cyanopyrrolidin-1-yl)-2-oxoethyl)-4-iodobenzamide], for which the IC50 amounted to 511 nM.
Turning to `O=C(NCC(=O)N1CCCC1B(O)O)c1ccc2cc(I)ccc2c1` (centres unmarked) [Compound 1030, 1-(2-(6-iodo-2-naphthamido)acetyl)pyrrolidin-2-ylboronic acid], the “IC50 values against seprase (in words)” value was “low nanomolar range” and the IC50 came out at 2 nM.
For `O=C(NCC(=O)N1CCCC1B(O)O)OCc1ccccc1` (stereo not drawn) [Compound 1051, Cbz-Gly-boroproline, reference compound], the IC50 amounted to 67 nM. In addition, the remaining activity at 0.005 µM (inhibitor 0.005 μM) is 81%. The remaining activity at 0.05 µM (inhibitor 0.05 μM) worked out at 46%. For the same compound, under “inhibitor 0.5 μM”, the remaining activity at 0.5 µM is 1%. The remaining activity at 5 µM (inhibitor 5 μM) was 0%. In addition, the remaining activity at 500 µM (inhibitor 500 μM) was found to be 0%.
Consider “Re(CO)3[1-(2-(6-(bis((1-methyl-1H-imidazol-2-yl)methyl)amino) hexanamido)acetyl)pyrrolidin-2-ylboronic acid] [Compound 1018]”, for which the IC50 is 20 nM.
Consider `O=C(NCC(=O)N1CCCC1B(O)O)c1ccc(I)cc1` (centres unmarked) [Compound 1024, 1-(2-(4-iodobenzamido)acetyl)pyrrolidin-2-ylboronic acid], for which the “IC50 values against seprase (in words)” value is given as “low nanomolar range” and the IC50 is 3 nM. Besides, the remaining activity at 0.005 µM (inhibitor 0.005 μM) came out at 22%. The remaining activity at 0.05 µM (inhibitor 0.05 μM) came out at 0%. Besides, the remaining activity at 0.5 µM (inhibitor 0.5 μM) amounted to 0%. Further, the remaining activity at 5 µM (inhibitor 5 μM) came to 0%. The remaining activity at 500 µM (inhibitor 500 μM) stood at 0%.
With `O=C(NCC(=O)N1CCCC1B(O)O)c1cc(I)ccc1Cl` (centres unmarked) [Compound 1027, 1-(2-(2-chloro-5-iodobenzamido)acetyl)pyrrolidin-2-ylboronic acid], the IC50 was found to be 5 nM.
The same measure, in the same setting: under `Cc1ccc(I)cc1C(=O)NCC(=O)N1CCCC1B(O)O` (centres unmarked) [Compound 1032, 1-(2-(5-iodo-2-methylbenzamido)acetyl)pyrrolidin-2-ylboronic acid] stands 11 nM; under `N#C[C@@H]1CCCN1C(=O)CNC(=O)[C@@H](CC(=O)O)NC(=O)c1cccc(I)c1` [Compound 1048, (R)-4-(2-((S)-2-cyanopyrrolidin-1-yl)-2-oxoethylamino)-3-(3-iodobenzamido)-4-oxobutanoic acid], 7410 nM; under `N#C[C@@H]1CCCN1C(=O)CNCc1cccc(I)c1` [Compound 1049, (S)-1-(2-(3-iodobenzylamino)acetyl)pyrrolidine-2-carbonitrile], 953 nM.
Consider `NC(Cc1ccc(I)cc1)C(=O)NCC(=O)N1CCCC1B(O)O` (centres unmarked) [Compound 1035, 1-(2-(2-amino-3-(4-iodophenyl)propanamido)acetyl)pyrrolidin-2-ylboronic acid], for which the IC50 was 340 nM.
On the same count and under the same terms, the value for `O=C(NCC(=O)N1CCCC1B(O)O)c1cc(I)ccc1Br` (centres unmarked) [Compound 1028, 1-(2-(2-bromo-5-iodobenzamido)acetyl)pyrrolidin-2-ylboronic acid] was 5 nM.
Turning to `N#C[C@@H]1CCCN1C(=O)CNC(=O)c1cc(I)cc(C(=O)O)c1` [Compound 1045, (S)-3-(2-(2-cyanopyrrolidin-1-yl)-2-oxoethylcarbamoyl)-5-iodobenzoic acid], the IC50 came to 1440 nM.
Same read-out and setting: under `N#Cc1ccc(I)cc1C(=O)NCC(=O)N1CCCC1B(O)O` (centres unmarked) [Compound 1031, 1-(2-(2-cyano-5-iodobenzamido)acetyl)pyrrolidin-2-ylboronic acid] stands 262 nM; under `O=C(NCC(=O)N1CCCC1B(O)O)Nc1ccc(I)cc1` (centres unmarked) [Compound 1034, 1-(2-(3-(4-iodophenyl)ureido)acetyl)pyrrolidin-2-ylboronic acid], 11 nM.
Same read-out and setting: the value for “Re(CO)3[2-((6-(2-(2-boronopyrrolidin-1-yl)-2-oxoethylamino)-6-oxohexyl)(pyridin-2-ylmethyl)amino)acetic acid] [Compound 1016]” was 3530 nM.
On the same count and under the same terms, the value for `N#C[C@@H]1CCCN1C(=O)CNC(=O)c1ccc(I)cc1Cl` [Compound 1041, (S)-2-chloro-N-(2-(2-cyanopyrrolidin-1-yl)-2-oxoethyl)-4-iodobenzamide] was 692 nM.
